Consider two compounds from article PMC11945201, “Enhancing the Oral Bioavailability of Glutathione Using Innovative Analogue Approaches” (Pharmaceutics, 2025).

Data set [1] is described as follows: UV rescue of UVA-irradiated fibroblast cells (MTT). The data set is classed as cell-based. The settings on record: peptide 0.0325 mmolL^−1, 24 h, no UV, mean ± SD, n = 6, read-out: % Cell Viability (no UV). Here is the method:
Fibroblast cells were seeded into 96-well plates at a density of 10,000 cells per well determined by cell counting. Cells were allowed to settle and attach for 24 h before the addition of peptides. The supernatant in each well was discarded, and the attached cells were washed using serum-free DMEM twice. One group of cells was exposed to UVA under a UV lamp for 1 h. A second group of cells was not exposed to UV irradiation. The supernatant was removed from each well of both groups and replaced with peptide (100 μL, 0.0325 mmolL^−1), which was then dissolved in Fluorobite^TM DMEM. Each plate, including 2 wells of both groups was also incubated with serum-free DMEM (positive control) and 2% Triton-X (negative control) for 24 h. The supernatant in each well of both groups was then discarded and the cells washed using PBS. MTT (100 μL, 6 mmolL^−1) that was dissolved in HBSS was then added to each well and incubated for 2 h for MTT conversion into formazan. The supernatant was then discarded, and the cells were washed using PBS to remove any residual MTT and formazan that were not attached to the cellular mitochondria. Formazan was dissolved in DMSO (50 μL), and the absorbance was measured on a microplate reader at a wavelength of 570 nm.

For data set [2], the system named is γ-glutamyl transferase (GGT). It counts as in vitro ADME, equine. To be noted: horse, 100 μgmL^−1, pH 9. Here is the method:
Each compound and GSH (100 μgmL^−1, 0.0315 molL^−1) was added to each reaction vessel containing phosphate buffer solution (800 μL, pH 9.0). The reaction vessels were incubated at 37 °C with shaking for the entire duration of the experiment. Reaction was initiated by the addition of GGT enzyme solution (100 μL, 10 UmL^−1). […] The degradation rate of the novel compounds analysed by HPLC were compared with that of GSH. […] A GGT degradation less than 50% was considered resistance to GTT activity.

Data set [3] can be described thus: Pharmacokinetic study after IV injection or oral gavage. The data set is classed as in vivo, male Sprague Dawley rat. The settings on record: for AUC / bioavailability / half-life: male, plasma; for AUC / bioavailability: Sprague-Dawley; for AUC / half-life: 75 mg per rat; for AUC: AUC0-48, mean ± SD, n = 4; for bioavailability: rat, po, 75 mg; for half-life: read-out: plasma t½. Here is the method: Pharmacokinetic studies were conducted using a male Sprague Dawley rat model. […] The animal experiments were performed in China, complying with the guide for care and use of laboratory animals. […] The collected blood samples were centrifuged at 7104× g for 5 min, and the plasma was stored at -70 °C until analysis. The plasma protein was precipitated by the addition of 1 mL of ACN, which was then vortexed for 1 min and centrifuged at 30,065× g for 15 min. […] The 1.70 concentration for each group (oral/IV) was determined using a modified LC-MS method adapted from the GSH protocol. Briefly, blood samples containing 1.70 were analysed separately by positive mode LC-MS using an Agilent 1100 series HPLC (Agilent Technology, Inc., Santa Clara, CA, USA) coupled with an Agilent 6530 Accurate Mass Q-TOF LC/MS (Agilent Technology, Inc., Santa Clara, CA, USA), which was equipped with a dual jet stream electrospray ionisation source. Chromatographic separation was achieved on a Zorbax SB C18 column (5 μm, 3 × 150 mm) maintained at 40 °C. […] The flow rate was set at 0.5 mL/min with an injection volume of 8 μL. Mass spectrometer settings were configured for m/z transitions of 319.1→215.2, with a fragmentor voltage of 180 V. The instrument parameters were as follows: a gas flow of 10 L/min, a gas temperature of 275 °C, a sheath gas flow of 12 L/min, a sheath gas temperature of 300 °C, a nebuliser pressure of 40 psi, a capillary voltage of 3000 V, and a nozzle voltage of 500 V. This method was developed and validated through triplicate linearity studies at concentrations ranging from 30 to 5000 ng/mL according to the International Conference on Harmonization (ICH) guidelines. Data were acquired and analysed using Agilent Mass Hunter Software (version A.02.17).

The conditions of data set [4]: cited from earlier work.
For data set [5] the following is noted: background statement in abstract, ref not given; cited from earlier work.
The next data set deals with aminopeptidase. As to the kind of experiment: in vitro. To be noted: aminopeptidase solution. Here is the method:
(§1) To investigate the GSH degradation against common enzymes of the GI tract, the degradation of GSH in the presence of pepsin, chymotrypsin, trypsin, aminopeptidase, GGT, jejunum luminal content, and mucosal homogenates obtained from the rats’ intestines were investigated. GSH (100 μgmL^−1) was incubated at 37 °C with the above enzymes or mixtures for 24 h. The sample was withdrawn at the time intervals of 0, 1, 10, 30, 60, 120, 240, 480, and 1440 min, which were then mixed with equal volume of ice-cold HCl (0.2 molL^−1) until analysis by HPLC. Enzymatic degradation was repeated until three results within <5% SD were obtained.

A short description of another data set: in vitro. The settings on record: rat. Here is the method:
as §1

For another data set, the target named is chymotrypsin (Bos taurus, UniProt P00766). Description: in vitro. To be noted: bovine, chymotrypsin solution. The procedure:
as §1

The subject of data set [6] is γ-glutamyl transferase (GGT). As to the kind of experiment: in vitro. To be noted: horse, γ-glutamyl transferase (GGT) solution. The procedure: as §1
The target in another data set is trypsin (Bos taurus, UniProt P00760). As to the kind of experiment: in vitro. The settings on record: bovine, trypsin solution. The procedure:
as §1

The target of the next data set is pepsin (Bos taurus, UniProt P00792). Description: in vitro. To be noted: bovine, pepsin solution. The procedure:
as §1

The nature of the next data set: physchem. Here is the method: To investigate the potential peptide degradation during storage and when in a cell culture medium, the stability of GSH in NaOH (0.1 molL^−1, pH 13.0), HBSS (pH 7.4), and HCl (0.1 molL^−1, pH 1.0) were investigated. GSH (100 μgmL^−1) was incubated at 37 °C with the above conditions for 24 h or until at least 20% of peptide was degraded. The samples were withdrawn at the time intervals 0, 1, 10, 30, 60, 120, 240, 480, and 1440 min and mixed with equal volume of ice-cold HCl (0.2 molL^−1) until analysis by HPLC. Stability was repeated until three results within <5% SD were obtained.

Values after ≈ are worked out from the molar mass of the structure shown.

Sequence of pepsin (P00792 43-372): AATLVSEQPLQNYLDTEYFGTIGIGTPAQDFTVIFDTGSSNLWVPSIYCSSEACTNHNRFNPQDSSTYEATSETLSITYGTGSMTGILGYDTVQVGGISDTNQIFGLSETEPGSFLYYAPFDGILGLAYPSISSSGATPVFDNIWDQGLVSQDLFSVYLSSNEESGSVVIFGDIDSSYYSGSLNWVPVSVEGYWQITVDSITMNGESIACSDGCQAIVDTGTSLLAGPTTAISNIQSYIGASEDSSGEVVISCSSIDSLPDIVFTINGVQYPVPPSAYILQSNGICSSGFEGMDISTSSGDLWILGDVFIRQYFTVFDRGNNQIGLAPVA
Sequence of trypsin (P00760 24-246): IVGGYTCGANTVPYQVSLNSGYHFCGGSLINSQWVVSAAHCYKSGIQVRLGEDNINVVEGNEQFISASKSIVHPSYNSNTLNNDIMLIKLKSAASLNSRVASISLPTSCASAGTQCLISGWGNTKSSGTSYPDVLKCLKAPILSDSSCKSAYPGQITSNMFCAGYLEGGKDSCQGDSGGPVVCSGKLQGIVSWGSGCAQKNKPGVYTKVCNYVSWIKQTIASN

As a reminder, the viability is a read-out of living cells in per cent, often relative to untreated cells. Broadly, the AUC is the area under the concentration-time curve, a measure of exposure. A higher AUC goes with high exposure. By bioavailability is commonly meant the share of a dose that reaches the circulation, judged against a reference dose that is usually intravenous. As for `CN(C(=O)CC[C@H](N)C(=O)O)[C@@H](CS)C(=O)NCC(=O)O` [Compound 1.70], in [1], the viability at 24 h, 0.0325 mmolL^−1 is 108 ± 9.4%. For the same compound, the “% Degradation by GGT” value in data set [2] is 11.7%. For the same compound, in [3] (Sprague Dawley rats), the “fold increase in oral bioavailability compared to native GSH” value is reported as 16.1 fold, the “fold increase in plasma t½ compared to native GSH” value came out at 16.8 fold and the half-life worked out at 0.56 h. The compound also returned an area under the curve (AUC) in [3] (IV) of 727 ± 42 ng·h/mL. The same compound displayed an exposure (AUC) in [3] (oral) of 82 ± 8 ng·h/mL. Further, the bioavailability in data set [3] was 11.3 ± 1.2%.
Turning to `N[C@@H](CCC(=O)N[C@@H](CS)C(=O)NCC(=O)O)C(=O)O` [GSH, Glutathione], the water solubility in [4] is given as 292.5 mg/mL (≈ 952 mM). Further, in data set [5], the oral bioavailability entry was “below 1%”. The half-life at 100 μgmL^−1 in the data set on aminopeptidase is 18.9 ± 0.9 h; in the data set “in vitro” (jejunum luminal contents) it was 30.5 ± 1.5 h; in “in vitro” (jejunum mucosal homogenates), 9.4 ± 2 h; on chymotrypsin, 4.6 ± 0.2 h; in data set [6], 0.7 ± 0.03 h; at trypsin, 5.8 ± 0.3 h. Further, the half-life at 100 μgmL^−1 at pepsin was 31.4 ± 1.6 h; in “physchem” (HBSS buffer, pH 7.4), 46.3 ± 2.3 h; in the data set “physchem” (aqueous HCl solution, pH 2) it was 203 ± 10.1 h; in “physchem” (aqueous NaOH solution, pH 12), 2.5 ± 0.1 h. In addition, the AUC in [3] (IV) was 5350 ± 2480 ng·h/mL; in [3] (oral) it was 36 ± 8 ng·h/mL. In data set [3], this compound came in with a bioavailability of 0.7 ± 0.1%. The half-life in data set [3] (Sprague Dawley rats) stood at 0.0333 h.
